Measured values: patent publication US9144229B2, “Tissue specific expression of antibodies in chickens” (Synageva BioPharma Corp., priority 2002, dated 2015)

Test system: chicken embryonic stem cells
Test: Titration kill curve of chicken ES cells under puromycin or neomycin selection
Format: cell-based
Design: key to Morphology of cES cells: ES cells are present.; ES cells are differentiated.; gone: no morphologically recognizable cells are present
Procedure: In a preferred embodiment, the concentration of puromycin required for selecting transfected cells is calculated as a titration kill curve. Titration kill curves for chicken embryonic stem cells are established by exposing cells in culture to puromycin concentrations varying from 0.0 to 1.0 μg/ml for 10 days (Table 7) and neomycin concentrations varying from 0.0 to 200 μg/ml (Table 8). The medium is changed every 2 days and fresh puromycin or neomycin is added. […] Puromycin concentrations of 0.3-1.0 μg/ml are used for selection of the transfected cultures. Neomycin concentrations over 40 μg/ml eliminated all cES cells within 7 days (Table 8).

neomycin was tested, and the “Morphology of cES cells” value (neomycin 10 μg/ml, day 1) was “ES”, the “Morphology of cES cells” value (neomycin 10 μg/ml, day 2) was “ES” and the “Morphology of cES cells” value (neomycin 10 μg/ml, day 3) was “ES”. For the same substance, the “Morphology of cES cells” value (neomycin 10 μg/ml, day 4) was “ES”, the “Morphology of cES cells” value (neomycin 10 μg/ml, day 5) was “ES” and the “Morphology of cES cells” value (neomycin 10 μg/ml, day 6) was “ES”. The “Morphology of cES cells” value (neomycin 10 μg/ml, day 7) was “ES”, the “Morphology of cES cells” value (neomycin 10 μg/ml, day 8) was “ES” and the “Morphology of cES cells” value (neomycin 10 μg/ml, day 9) was “ES”. The “Morphology of cES cells” value (neomycin 10 μg/ml, day 10) was “ES”, the “Morphology of cES cells” value (neomycin 20 μg/ml, day 1) was “ES” and the “Morphology of cES cells” value (neomycin 20 μg/ml, day 2) was “ES”. For the same substance, the “Morphology of cES cells” value (neomycin 20 μg/ml, day 3) was “ES”, the “Morphology of cES cells” value (neomycin 20 μg/ml, day 4) was “ES” and the “Morphology of cES cells” value (neomycin 20 μg/ml, day 5) was “ES”. The “Morphology of cES cells” value (neomycin 20 μg/ml, day 6) was “ES”, the “Morphology of cES cells” value (neomycin 20 μg/ml, day 7) was “ES” and the “Morphology of cES cells” value (neomycin 20 μg/ml, day 8) was “ES”. The “Morphology of cES cells” value (neomycin 20 μg/ml, day 9) was “ES”, the “Morphology of cES cells” value (neomycin 20 μg/ml, day 10) was “ES” and the “Morphology of cES cells” value (neomycin 30 μg/ml, day 1) was “ES”. For the same substance, the “Morphology of cES cells” value (neomycin 30 μg/ml, day 2) was “ES”, the “Morphology of cES cells” value (neomycin 30 μg/ml, day 3) was “ES” and the “Morphology of cES cells” value (neomycin 30 μg/ml, day 4) was “ES”. For the same substance, the “Morphology of cES cells” value (neomycin 30 μg/ml, day 5) was “ES”, the “Morphology of cES cells” value (neomycin 30 μg/ml, day 6) was “ES” and the “Morphology of cES cells” value (neomycin 30 μg/ml, day 7) was “ES/Diff”. The “Morphology of cES cells” value (neomycin 30 μg/ml, day 8) was “ES/diff”, the “Morphology of cES cells” value (neomycin 30 μg/ml, day 9) was “Diff” and the “Morphology of cES cells” value (neomycin 30 μg/ml, day 10) was “Diff/”. The “Morphology of cES cells” value (neomycin 40 μg/ml, day 1) was “ES”, the “Morphology of cES cells” value (neomycin 40 μg/ml, day 2) was “ES” and the “Morphology of cES cells” value (neomycin 40 μg/ml, day 3) was “ES”. For the same substance, the “Morphology of cES cells” value (neomycin 40 μg/ml, day 4) was “ES”, the “Morphology of cES cells” value (neomycin 40 μg/ml, day 5) was “ES/Diff” and the “Morphology of cES cells” value (neomycin 40 μg/ml, day 6) was “Diff/”. The “Morphology of cES cells” value (neomycin 40 μg/ml, day 7) was “dead”, the “Morphology of cES cells” value (neomycin 40 μg/ml, day 8) was “gone” and the “Morphology of cES cells” value (neomycin 40 μg/ml, day 9) was “gone”. The “Morphology of cES cells” value (neomycin 40 μg/ml, day 10) was “gone”, the “Morphology of cES cells” value (neomycin 50 μg/ml, day 1) was “ES” and the “Morphology of cES cells” value (neomycin 50 μg/ml, day 2) was “ES”. The “Morphology of cES cells” value (neomycin 50 μg/ml, day 3) was “ES”, the “Morphology of cES cells” value (neomycin 50 μg/ml, day 4) was “ES/Diff” and the “Morphology of cES cells” value (neomycin 50 μg/ml, day 5) was “ES/Diff”. For the same substance, the “Morphology of cES cells” value (neomycin 50 μg/ml, day 6) was “Diff/”, the “Morphology of cES cells” value (neomycin 50 μg/ml, day 7) was “Dead/” and the “Morphology of cES cells” value (neomycin 50 μg/ml, day 8) was “gone”. The “Morphology of cES cells” value (neomycin 50 μg/ml, day 9) was “gone”, the “Morphology of cES cells” value (neomycin 50 μg/ml, day 10) was “gone” and the “Morphology of cES cells” value (neomycin 60 μg/ml, day 1) was “ES”. For the same substance, the “Morphology of cES cells” value (neomycin 60 μg/ml, day 2) was “ES”, the “Morphology of cES cells” value (neomycin 60 μg/ml, day 3) was “ES” and the “Morphology of cES cells” value (neomycin 60 μg/ml, day 4) was “gone”. The “Morphology of cES cells” value (neomycin 60 μg/ml, day 5) was “gone”, the “Morphology of cES cells” value (neomycin 60 μg/ml, day 6) was “gone” and the “Morphology of cES cells” value (neomycin 60 μg/ml, day 7) was “gone”. The “Morphology of cES cells” value (neomycin 60 μg/ml, day 8) was “gone”, the “Morphology of cES cells” value (neomycin 60 μg/ml, day 9) was “gone” and the “Morphology of cES cells” value (neomycin 60 μg/ml, day 10) was “gone”. For the same substance, the “Morphology of cES cells” value (neomycin 100 μg/ml, day 1) was “ES/Diff”, the “Morphology of cES cells” value (neomycin 100 μg/ml, day 2) was “Diff” and the “Morphology of cES cells” value (neomycin 100 μg/ml, day 3) was “dead”. The “Morphology of cES cells” value (neomycin 100 μg/ml, day 4) was “gone”, the “Morphology of cES cells” value (neomycin 100 μg/ml, day 5) was “gone” and the “Morphology of cES cells” value (neomycin 100 μg/ml, day 6) was “gone”. The “Morphology of cES cells” value (neomycin 100 μg/ml, day 7) was “gone”, the “Morphology of cES cells” value (neomycin 100 μg/ml, day 8) was “gone” and the “Morphology of cES cells” value (neomycin 100 μg/ml, day 9) was “gone”. For the same substance, the “Morphology of cES cells” value (neomycin 100 μg/ml, day 10) was “gone”, the “Morphology of cES cells” value (neomycin 150 μg/ml, day 2) was “dead” and the “Morphology of cES cells” value (neomycin 150 μg/ml, day 3) was “dead”. For the same substance, the “Morphology of cES cells” value (neomycin 150 μg/ml, day 4) was “gone”, the “Morphology of cES cells” value (neomycin 150 μg/ml, day 5) was “gone” and the “Morphology of cES cells” value (neomycin 150 μg/ml, day 6) was “gone”. For the same substance, the “Morphology of cES cells” value (neomycin 150 μg/ml, day 7) was “gone”, the “Morphology of cES cells” value (neomycin 150 μg/ml, day 8) was “gone” and the “Morphology of cES cells” value (neomycin 150 μg/ml, day 9) was “gone”. For the same substance, the “Morphology of cES cells” value (neomycin 150 μg/ml, day 10) was “gone”, the “Morphology of cES cells” value (neomycin 200 μg/ml, day 2) was “dead” and the “Morphology of cES cells” value (neomycin 200 μg/ml, day 3) was “gone”. The “Morphology of cES cells” value (neomycin 200 μg/ml, day 4) was “gone”, the “Morphology of cES cells” value (neomycin 200 μg/ml, day 5) was “gone” and the “Morphology of cES cells” value (neomycin 200 μg/ml, day 6) was “gone”. The “Morphology of cES cells” value (neomycin 200 μg/ml, day 7) was “gone”, the “Morphology of cES cells” value (neomycin 200 μg/ml, day 8) was “gone” and the “Morphology of cES cells” value (neomycin 200 μg/ml, day 9) was “gone”. For the same substance, the “Morphology of cES cells” value (neomycin 200 μg/ml, day 10) was “gone” and the “concentration that eliminated all cES cells” value (neomycin, within 7 days) was “over 40 μg/ml”.
